Data on 25 compounds can be found in patent US12172975B2, “1H-indazole carboxamides as receptor-interacting protein kinase 1 inhibitors (RIPK1)” (BRISTOL-MYERS SQUIBB COMPANY, priority 2018, dated 2024).

One may read the IC50 as the concentration needed to halve the response being measured.

Where a name gives a salt, the structure may show the parent alone.

The first assay has as its system MLKL phosphorylation in HT29-L23 human colorectal adenocarcinoma cells. Kind of assay: MLKL Phosphorylation High-Content Assay. In kind it is cell-based. To be noted: Homo sapiens, 6 h, necroptosis induced with TNFα, SMAC mimetic and Z-VAD, read-out: pMLKL (IC50). As for the experimental part:
MLKL Phosphorylation High-Content Assay
HT29-L23 human colorectal adenocarcinoma cells were maintained in RPMI 1640 medium containing 10% heat-inactivated FBS, 1% Penicillin-Streptomycin and 10 mM HEPES. Cells were seeded at 2,000 cells/well in 384 well tissue culture-treated microplates (Greiner #781090-3B) and incubated at 37° C. (5% CO2/95% O2) for 2 d. […] (5% CO2/95% O2). Necroptopsis was induced using a mixture of human TNFα (35 ng/mL) (Peprotech #300-01A), SMAC mimetic (from US 2015/0322111 A1) (700 nM) and Z-VAD ([…]) (BD pharmingen #51-6936). Following 6 h incubation at 37° C. (5% CO2/95% O2), the cells were fixed with 4% formaldehyde (ACROS 11969-0010) for 15 min at rt, then permeabilized with phosphate buffered saline (PBS) containing 0.2% Triton-X-100 for 10 min. MLKL phosphorylation was detected using anti-MLKL (phospho S358) antibody (Abeam #ab 187091) (1:1000 dilution in Blocking Buffer [PBS supplemented with 0.1% BSA]) with ON incubation at 4° C. After washing three times in PBS, goat anti-rabbit Alexa-488 (1:1000 dilution) (Life Technologies, A11008) and Hoechst 33342 (Life Technologies, H3570) (1:2000 dilution) in Blocking Buffer were added for 1 h at rt.
Following another three cycles of washes in PBS, the microplates were sealed, and cellular images were acquired in the Cellomics ArrayScan VTI high-content imager equipped with an X1 camera. Fluorescent images were taken using a 10× objective and the 386-23 BGRFRN_BGRFRN and 485-20 BGRFRN_BGRFRN filter sets, for nuclei and MLKL phosphorylation, respectively. The image sets were analyzed using the Compartmental Analysis Bioapplication software (Cellomics). The level of MLKL phosphorylation was quantified as MEAN_CircRingAvglntenRatio. The maximal inhibitory response was defined by the activity induced by Neels (CAS #: 852391-15-2, 6.25 μM). […] The data were fitted using the 4-parameter logistic equation to calculate the IC50 and Ymax values.
For the compound `CNC(=O)c1n[nH]c2cc(-c3cnc(OC)c(C(=O)NCCCC(=O)OC(C)(C)C)c3)ccc12` [Example 135, tert-butyl 4-({2-methoxy-5-[3-(methylcarbamoyl)-1H-indazol-6-yl]pyridin-3-yl}formamido)-butanoate], the IC50 came out at 200 nM.

`[2H]C([2H])([2H])Oc1ncc(-c2ccc3c(C(=O)NC)n[nH]c3c2)cc1C(=O)N[C@@H](c1cc(OC(F)(F)F)ccc1F)C([2H])([2H])[2H]` [Example 9, (R)-6-(5-((1-(2-fluoro-5-(trifluoromethoxy)phenyl)ethyl-2,2,2-d3)carbamoyl)-6-(methoxy-d3)pyridin-3-yl)-N-methyl-1H-indazole-3-carboxamide, TFA]: the half-inhibitory concentration (IC50) worked out at 22 nM.

For the compound `[2H]C([2H])([2H])Oc1ncc(-c2ccc3c(C(=O)NC)n[nH]c3c2)cc1C(=O)N[C@H](C)c1cc(OC(F)(F)F)ccc1F` [Example 30, 6-(5-{[(1R)-1-[2-fluoro-5-(tri-fluoromethoxy)phenyl]ethyl]-carbamoyl}-6-(deutero)methoxy-pyridin-3-yl)-N-methyl-1H-indazole-3-carboxamide], the concentration for half-maximal inhibition (IC50) was 48 nM.

Turning to `[2H]C([2H])([2H])NC(=O)c1n[nH]c2cc(-c3cnc(OC([2H])([2H])[2H])c(C(=O)N[C@@H](C)c4cc(OC(F)(F)F)ccc4F)c3)ccc12` [Example 5, (S)-6-(5-((1-(2-fluoro-5-(trifluoromethoxy)phenyl)ethyl)carbamoyl)-6-(methoxy-d3)pyridin-3-yl)-N-(methyl-d3)-1H-indazole-3-carboxamide], the IC50 came out at 9 nM.

With `CCc1ccccc1CNC(=O)c1cc(-c2ccc3c(C(=O)NC)n[nH]c3c2)cnc1OC` [Example 82, 6-(5-{[(2-ethylphenyl)methyl]-carbamoyl}-6-methoxy-pyridin-3-yl)-N-methyl-1H-indazole-3-carboxamide], the IC50 is 41 nM.

For the compound `CNC(=O)c1n[nH]c2cc(-c3cnc(OC)c(C(=O)NCCC(O)c4ccc(F)cc4)c3)ccc12` (stereo not shown) [Example 40, 6-(5-{[3-(4-fluorophenyl)-3-hydroxypropyl]carbamoyl}-6-methoxypyridin-3-yl)-N-methyl-1H-indazole-3-carboxamide], the IC50 was 5.7 nM.

For `[2H]C([2H])([2H])Oc1ncc(-c2ccc3c(C(=O)NC)n[nH]c3c2)cc1C(=O)N[C@H](C)CC(=O)OC(C)(C)C` [Example 29, tert-butyl (3R)-3-{[2-(deutero)-methoxy-5-[3-(methylcarbam-oyl)-1H-indazol-6-yl]pyridin-3-yl]formamido}butanoate], the IC50 came to 76 nM.

In the case of `CNC(=O)c1n[nH]c2cc(-c3cnc(OC)c(C(=O)N[C@H]4CCN(C(=O)OC(C)(C)C)C4)c3)ccc12` [Example 136, tert-butyl (3S)-3-{2-methoxy-5-[3-(methylcarbamoyl)-1H-indazol-6-yl]pyridine-3-amido}-pyrrolidine-1-carboxylate], the 50% inhibitory concentration (IC50) came out at 480 nM.

As for `CNC(=O)c1[nH]nc2cc(-c3cnc(OC)c(C(=O)NC[C@@H]4C[C@H]4c4ccc(F)cc4)c3)ccc12` [Example 70, 6-[5-({[(1R,2R)-2-(4-fluoro-phenyl)cyclopropyl]methyl}-carbamoyl)-6-methoxypyridin-3-yl]-N-methyl-2H-indazole-3-carboxamide], the IC50 turned out to be 36 nM.

As to `CNC(=O)c1n[nH]c2cc(-c3cc(C(=O)NCc4cc(OC(F)(F)F)ccc4F)c(OC)nc3C)ccc12` [Example 161, 6-[5-({[2-fluoro-5-(tri-fluoromethoxy)phenyl]-methyl}carbamoyl)-6-methoxy-2-methylpyridin-3-yl]-N-methyl-1H-indazole-3-carboxamide], the IC50 is 74 nM.

For `COc1ncc(-c2ccc3c(C(=O)NC4CC4)n[nH]c3c2)cc1C(=O)NCc1ccccc1OC(F)(F)F` [Example 174, N-cyclopropyl-6-[6-methoxy-5-({[2-(trifluoromethoxy)phenyl]-methyl}carbamoyl)pyridin-3-yl]-1H-indazole-3-carboxamide], the IC50 is 14 nM.

With `CNC(=O)c1n[nH]c2cc(-c3cnc(OC)c(C(=O)NCc4ccccc4OC)c3)ccc12` [Example 58, 6-(6-methoxy-5-{[(2-methoxy-phenyl)methyl]carbamoyl}-pyridin-3-yl)-N-methyl-1H-indazole-3-carboxamide], the IC50 was 5.6 nM.

Regarding `[2H]C([2H])([2H])NC(=O)c1n[nH]c2cc(-c3cnc(OC([2H])([2H])[2H])c(C(=O)N[C@@H](C)c4cc(C(F)(F)F)ccc4F)c3)ccc12` [Example 213, 6-(5-{[(1S)-1-[2-fluoro-5-(trifluoro-methyl)phenyl]ethyl]carbamoyl}-6-(deutero)methoxypyridin-3-yl)-N-(deutero)methyl-1H-indazole-3-carboxamide], the IC50 came to 21 nM.

Regarding `[2H]C([2H])([2H])Oc1ncc(-c2ccc3c(C(=O)NC)n[nH]c3c2)cc1C(=O)N[C@H](C)c1ccccc1C(F)(F)F` [Example 33, 6-[6-(deutero)methoxy-5-{[(1R)-1-[2-(trifluoromethyl)phenyl]-ethyl]carbamoyl}pyridin-3-yl]-N-methyl-1H-indazole-3-carbox-amide], the IC50 came out at 25 nM.

Regarding `CNC(=O)c1n[nH]c2cc(-c3cnc(OC)c(C(=O)NCC(C)(C)C(=O)OC(C)(C)C)c3)cc(F)c12` [Example 144, tert-butyl 3-({5-[4-fluoro-3-(methylcarbamoyl)-1H-indazol-6-yl]-2-methoxy-pyridin-3-yl}formamido)-2,2-dimethylpropanoate], the IC50 came to 100 nM.

Consider `CNC(=O)c1n[nH]c2cc(-c3cnc(OC)c(C(=O)NCc4ccccc4N4CCC(CO)CC4)c3)ccc12` [Example 57, 6-{5-[({2-[4-(hydroxymethyl)-piperidin-1-yl]phenyl}methyl)-carbamoyl]-6-methoxypyridin-3-yl}-N-methyl-1H-indazole-3-carboxamide], for which the IC50 worked out at 110 nM.

Turning to `CNC(=O)c1n[nH]c2cc(-c3cnc(OC)c(C(=O)NCCC(C)c4ccc(F)cc4)c3)ccc12` (stereo not shown) [Example 41, 6-(5-{[3-(4-fluorophenyl)-butyl]carbamoyl}-6-methoxy-pyridin-3-yl)-N-methyl-1H-indazole-3-carboxamide], the IC50 is 0.6 nM.

Regarding `CNC(=O)c1n[nH]c2cc(-c3cnc(OC)c(C(=O)NCCCOC4CCCCO4)c3)ccc12` (stereo not shown) [Example 61, 6-(6-methoxy-5-{[3-(oxan-2-yloxy)propyl]carbamoyl}-pyridin-3-yl)-N-methyl-1H-indazole-3-carboxamide], the concentration for half-maximal inhibition (IC50) was 28 nM.

Take `[2H]C([2H])([2H])Oc1ncc(-c2ccc3c(C(=O)NC)n[nH]c3c2)cc1C(=O)N[C@@H](c1cccc(OC(F)(F)F)c1)C([2H])([2H])[2H]` [Example 11, (R)-6-(6-(methoxy-d3)-5-((1-(3-(trifluoromethoxy)phenyl)ethyl-2,2,2-d3)carbamoyl)pyridin-3-yl)-N-methyl-1H-indazole-3-carboxamide, TFA]: the IC50 was 223 nM.

As for `CNC(=O)c1n[nH]c2cc(-c3cnc(OC)c(C(=O)N[C@@H](C)CC(=O)OC(C)(C)C)c3)ccc12` [Example 139, tert-butyl (3S)-3-({2-methoxy-5-[3-(methylcarbamoyl)-1H-indazol-6-yl]pyridin-3-yl}-formamido)butanoate], the half-inhibitory concentration (IC50) came to 28 nM.

As for `CNC(=O)c1n[nH]c2cc(-c3cnc(OC)c(C(=O)NCCS(=O)(=O)Nc4ccccc4)c3)ccc12` [Example 47, 6-(6-methoxy-5-{[2-(phenyl-sulfamoyl)ethyl]carbamoyl}-pyridin-3-yl)-N-methyl-1H-indazole-3-carboxamide], the IC50 is 38 nM.

Turning to `[2H]C([2H])([2H])Oc1ncc(-c2ccc3c(C(=O)NC)n[nH]c3c2)cc1C(=O)N[C@@H](c1cc(C(F)(F)F)ccc1F)C([2H])([2H])[2H]` [Example 4, (R)-6-(5-((1-(2-fluoro-5-(trifluoromethyl)phenyl)ethyl-2,2,2-d3)carbamoyl)-6-(methoxy-d3)pyridin-3-yl)-N-methyl-1H-indazole-3-carboxamide, TFA], the 50% inhibitory concentration (IC50) was determined as 19 nM.

As for `COc1ncc(-c2ccc3c(C(=O)NCC(F)(F)F)n[nH]c3c2)cc1C(=O)NCc1ccccc1OC(F)(F)F` [Example 178], the concentration for half-maximal inhibition (IC50) was found to be 120 nM.

Still in this assay, the particulars now being: necroptosis induced with TNFα, SMAC mimetic and Z-VAD, 6 h, read-out: pMLKL (IC50).
Turning to `CNC(=O)c1n[nH]c2cc(-c3cnc(OC)c(C(=O)N[C@H](C)c4cc(OC(F)(F)F)ccc4F)c3)ccc12` [Example 216, 6-(5-{[(1R)-1-[2-fluoro-5-(trifluoro-methoxy)phenyl](2,2,2-deutero)-ethyl]carbamoyl}-6-(deutero)meth-oxypyridin-3-yl)-N-(deutero)methyl-1H-indazole-3-carboxamide], the IC50 was 30 nM.

For “N-[(1,1,2,2,2-deutero)ethyl]-6-(5- {[(1R)-1-[2-fluoro-5-(trifluoro- methyl)phenyl]ethyl]carbamoyl}-6- (deutero)methoxypyridin-3-yl)-1H- indazole-3-carboxamide [Example 227]”, the IC50 came out at 69 nM.
